Measurements: US9845319B2, “Amide substituted thiazoles as modulators of RORyt” (Janssen Pharmaceutica NV, priority 2014, dated 2017)

Key:
[1] = biological target: T1, human RORγt ligand binding domain (RORγt LBD) (Homo sapiens, UniProt P51449); assay: RORγt ThermoFluor assay; details: estimated from thermal shift concentration response
T1 construct: His-tag (N); TurboTEV protease cleavage site (ENLYFQG) (N); made in house; host or cells: E. coli (pHIS1, a modified pET expression vector)
T1 sequence (P51449 with tags, fused parts or gaps): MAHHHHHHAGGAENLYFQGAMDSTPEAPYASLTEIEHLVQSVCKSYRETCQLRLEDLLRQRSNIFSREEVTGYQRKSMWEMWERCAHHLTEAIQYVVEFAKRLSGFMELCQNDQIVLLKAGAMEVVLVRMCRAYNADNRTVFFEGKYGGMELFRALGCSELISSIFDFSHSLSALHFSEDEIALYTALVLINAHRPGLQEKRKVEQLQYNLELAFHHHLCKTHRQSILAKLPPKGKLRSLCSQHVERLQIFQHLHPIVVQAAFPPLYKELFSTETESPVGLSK
Method in brief: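 Thermal shift of RORγt LBD (0.065 mg/mL) with 60 μM 1,8-ANS in 100 mM Hepes pH 7.0, NaCl, GSH, 0.002% Tween-20, heated at 1° C/min. ANS fluorescence tracked versus temperature; ΔTm relative to DMSO wells. Compounds serially diluted 1:2 from 10 mM DMSO stock.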

full-length human RORγt = biological target: T2, full-length human RORγt (Homo sapiens, UniProt P51449); assay: RORγt (full-length human) Reporter Assay, Conditions A; type: cell-based; details: for IC50: HEK293T cells, GAL4-DBD-RORγt, luciferase, read-out: RORγt (FL) Reporter Assay A, IC50; for inhibition at 6 µM: read-out: RORγt (FL) Reporter Assay A, % inhibition @ 6 μM, 6 μM compound; for inhibition at 2 µM: read-out: RORγt (FL) Reporter Assay A, % inhibition (* at 2 μM), 2 μM compound concentration (footnote *)
T2 construct: expressed in transfected cells; host or cells: HEK293T, transiently transfected with pCMV-BD-ROR
T2 sequence (P51449 1-497 isoform P51449-2): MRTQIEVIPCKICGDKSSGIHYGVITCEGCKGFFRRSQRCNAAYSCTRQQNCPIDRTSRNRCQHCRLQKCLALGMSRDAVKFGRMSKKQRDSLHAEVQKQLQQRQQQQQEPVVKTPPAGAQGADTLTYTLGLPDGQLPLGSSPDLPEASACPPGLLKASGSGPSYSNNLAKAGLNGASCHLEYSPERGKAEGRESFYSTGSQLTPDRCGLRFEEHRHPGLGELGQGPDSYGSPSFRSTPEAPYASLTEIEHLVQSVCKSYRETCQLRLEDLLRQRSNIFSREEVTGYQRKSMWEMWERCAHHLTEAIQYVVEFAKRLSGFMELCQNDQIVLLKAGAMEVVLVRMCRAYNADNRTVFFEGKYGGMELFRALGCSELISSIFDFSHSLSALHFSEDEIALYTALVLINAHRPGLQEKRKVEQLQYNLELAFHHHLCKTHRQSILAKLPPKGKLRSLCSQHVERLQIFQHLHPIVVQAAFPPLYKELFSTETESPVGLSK
Method in brief: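 Reporter cells lysed after 16–20 h compound exposure; firefly and Renilla luciferase luminescence measured. Firefly signal normalised to DMSO and saturating reference compound, then to Renilla; IC50 from normalised data versus concentration, percent inhibition relative to DMSO.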

SMILES | Kd [1] | IC50 (full-length human RORγt) | inhibition at 6 µM (full-length human RORγt) | inhibition at 2 µM (full-length human RORγt) | inhibition at 0.67 µM (full-length human RORγt; 0.67 μM compound concentration, read-out: RORγt (FL) Reporter Assay A, % inhibition (** at 0.67 μM))
CC[C@H](NS(=O)(=O)c1ccc(-c2sc(-c3nnc(C(C)(C)O)o3)nc2C(=O)N2CCC(F)(F)CC2)c(Cl)c1F)C(F)(F)F [Example 6/15, (S)-3-Chloro-4-(4-(4,4-difluoropiperidine-1-carbonyl)-2-(5-(2-hydroxypropan-2-yl)-1,3,4-oxadiazol-2-yl)thiazol-5-yl)-2-fluoro-N-(1,1,1-trifluorobutan-2-yl)benzenesulfonamide] | 0.89 nM | 33 nM | 107% |  | 
C[C@H](NS(=O)(=O)c1ccc(-c2sc(-c3nnc(C(C)(C)O)o3)nc2C(=O)N2CCC(F)(F)C2)c(Cl)c1Cl)C(F)(F)F [Example 6/2, (S)-2,3-Dichloro-4-(4-(3,3-difluoropyrrolidine-1-carbonyl)-2-(5-(2-hydroxypropan-2-yl)-1,3,4-oxadiazol-2-yl)thiazol-5-yl)-N-(1,1,1-trifluoropropan-2-yl)benzenesulfonamide] | 7.6 nM | 38 nM | 108% |  | 
CC[C@H](NS(=O)(=O)c1ccc(-c2sc(-c3nnc(C(C)(C)O)o3)nc2C(=O)N2CCC(F)(F)CC2)c(Cl)c1)C(F)(F)F [Example 6/12, (S)-3-Chloro-4-(4-(4,4-difluoropiperidine-1-carbonyl)-2-(5-(2-hydroxypropan-2-yl)-1,3,4-oxadiazol-2-yl)thiazol-5-yl)-N-(1,1,1-trifluorobutan-2-yl)benzenesulfonamide] | 10 nM | 55 nM | 103% |  | 
CC[C@H](NS(=O)(=O)c1ccc(-c2sc(-c3nnc(C(C)(C)O)o3)nc2C(=O)N2CC(F)(F)C2)c(Cl)c1)C(F)(F)F [Example 6/13, (S)-3-Chloro-4-(4-(3,3-difluoroazetidine-1-carbonyl)-2-(5-(2-hydroxypropan-2-yl)-1,3,4-oxadiazol-2-yl)thiazol-5-yl)-N-(1,1,1-trifluorobutan-2-yl)benzenesulfonamide] | 590 nM | 1100 nM | 90% |  | 
CC(C)(O)c1nnc(-c2nc(C(=O)N3CCC(F)(F)CC3)c(-c3ccc(S(=O)(=O)NC(C)(C)C(F)(F)F)c(F)c3Cl)s2)o1 [Example 6/19, 3-Chloro-4-(4-(4,4-difluoropiperidine-1-carbonyl)-2-(5-(2-hydroxypropan-2-yl)-1,3,4-oxadiazol-2-yl)thiazol-5-yl)-2-fluoro-N-(1,1,1-trifluoro-2-methylpropan-2-yl)benzenesulfonamide] | 6.1 nM | 76 nM | 107% |  | 
CCN(CC)C(=O)c1nc(-c2nnc(C(N)=O)o2)sc1-c1ccc(S(=O)(=O)N[C@@H](C)C(F)(F)F)c(Cl)c1Cl [Example 5/1, (S)-5-(5-(2,3-Dichloro-4-(N-(1,1,1-trifluoropropan-2-yl)sulfamoyl)phenyl)-4-(diethylcarbamoyl)thiazol-2-yl)-1,3,4-oxadiazole-2-carboxamide] | 120 nM | 280 nM | 105% |  | 
CC(C)(O)c1nnc(-c2nc(C(=O)N3CCC(F)(F)CC3)c(-c3ccc(CC(O)(C(F)(F)F)C(F)(F)F)c(Cl)c3)s2)o1 [Example 8/3, (5-(3-Chloro-4-(3,3,3-trifluoro-2-hydroxy-2-(trifluoromethyl)propyl)phenyl)-2-(5-(2-hydroxypropan-2-yl)-1,3,4-oxadiazol-2-yl)thiazol-4-yl)(4,4-difluoropiperidin-1-yl)methanone] | 6.3 nM | 83 nM |  | 104% | 
CC[C@H](NS(=O)(=O)c1ccc(-c2sc(-c3nnc(C(C)(C)O)o3)nc2C(=O)N(CC)CC)c(Cl)c1Cl)C(F)(F)F [Example 6, (S)-5-(2,3-Dichloro-4-(N-(1,1,1-trifluorobutan-2-yl)sulfamoyl)phenyl)-N,N-diethyl-2-(5-(2-hydroxypropan-2-yl)-1,3,4-oxadiazol-2-yl)thiazole-4-carboxamide] | 0.99 nM | 13 nM |  | 105% | 
CCN(CC)C(=O)c1nc(-c2nncn2CC(C)(C)O)sc1-c1ccc(C(O)(C(F)(F)F)C(F)(F)F)c(Cl)c1Cl [Example 9/1, 5-(2,3-Dichloro-4-(1,1,1,3,3,3-hexafluoro-2-hydroxypropan-2-yl)phenyl)-N,N-diethyl-2-(4-(2-hydroxy-2-methylpropyl)-4H-1,2,4-triazol-3-yl)thiazole-4-carboxamide] | 27 nM | 67 nM |  | 99% | 
C[C@H]1CCCN1C(=O)c1nc(-c2nnc(C(C)(C)O)o2)sc1-c1ccc(OCC(O)(C(F)(F)F)C(F)(F)F)cc1C(F)(F)F [Example 6/24, (S)-(2-(5-(2-Hydroxypropan-2-yl)-1,3,4-oxadiazol-2-yl)-5-(4-(3,3,3-trifluoro-2-hydroxy-2-(trifluoromethyl)propoxy)-2-(trifluoromethyl)phenyl)thiazol-4-yl)(2-methylpyrrolidin-1-yl)methanone] | 11 nM | 130 nM |  | 96% | 
C[C@H](NS(=O)(=O)c1ccc(-c2sc(-c3cc(C(C)(C)O)on3)nc2C(=O)N2CCC(F)(F)CC2)c(Cl)c1Cl)C(F)(F)F [Example 13, (S)-2,3-Dichloro-4-(4-(4,4-difluoropiperidine-1-carbonyl)-2-(5-(2-hydroxypropan-2-yl)isoxazol-3-yl)thiazol-5-yl)-N-(1,1,1-trifluoropropan-2-yl)benzenesulfonamide] | 1.3 nM | 12 nM |  | 105% | 
COC1(c2nnc(-c3nc(C(=O)N4CCC(F)(F)CC4)c(-c4ccc(S(=O)(=O)N[C@@H](C)C(F)(F)F)c(Cl)c4Cl)s3)o2)CC1 [Example 1/2, (S)-2,3-Dichloro-4-(4-(4,4-difluoropiperidine-1-carbonyl)-2-(5-(1-methoxycyclopropyl)-1,3,4-oxadiazol-2-yl)thiazol-5-yl)-N-(1,1,1-trifluoropropan-2-yl)benzenesulfonamide] | 0.42 nM | 11 nM |  |  | 105%
CC1CCN(C(=O)c2nc(-c3nnc(C(C)(C)O)o3)sc2-c2ccc(S(=O)(=O)N[C@@H](C)C(F)(F)F)c3ccccc23)CC1 [Example 4, (S)-4-(2-(5-(2-Hydroxypropan-2-yl)-1,3,4-oxadiazol-2-yl)-4-(4-methylpiperidine-1-carbonyl)thiazol-5-yl)-N-(1,1,1-trifluoropropan-2-yl)naphthalene-1-sulfonamide] | 1.5 nM | 19 nM |  | 103% | 
CC1(NS(=O)(=O)c2ccc(-c3sc(-c4nnc(C(C)(C)O)o4)nc3C(=O)N3CCC(F)(F)CC3)c(Cl)c2Cl)CC1 [Example 21, 2,3-Dichloro-4-(4-(4,4-difluoropiperidine-1-carbonyl)-2-(5-(2-hydroxypropan-2-yl)-1,3,4-oxadiazol-2-yl)thiazol-5-yl)-N-(1-methylcyclopropyl)benzenesulfonamide] | 4.7 nM | 67 nM | 107% |  | 
C[C@H](NS(=O)(=O)c1ccc(-c2sc(-c3nnc(C(C)(C)O)o3)nc2C(=O)N2CCC(F)(F)CC2)c(F)c1C(F)(F)F)C(F)(F)F [Example 25, 4-(4-(4,4-Difluoropiperidine-1-carbonyl)-2-(5-(2-hydroxypropan-2-yl)-1,3,4-oxadiazol-2-yl)thiazol-5-yl)-3-fluoro-2-(trifluoromethyl)-N—((S)-1,1,1-trifluoropropan-2-yl)benzenesulfonamide] | 10 nM | 93 nM | 98% |  | 
CC[C@H](NS(=O)(=O)c1ccc(-c2sc(-c3cccc(CC(C)(C)C(=O)O)n3)nc2C(=O)N2CC(F)(F)C[C@@H]2C)c(C(F)F)c1F)C(F)(F)F [Example 19/1, 3-(6-(4-((S)-4,4-Difluoro-2-methylpyrrolidine-1-carbonyl)-5-(2-(difluoromethyl)-3-fluoro-4-(N—((S)-1,1,1-trifluorobutan-2-yl)sulfamoyl)phenyl)thiazol-2-yl)pyridin-2-yl)-2,2-dimethylpropanoic acid] | 0.023 nM | 10 nM |  | 98% | 
